Laboratory results published in PMC10377601, “Side Chain-Modified Benzothiazinone Derivatives with Anti-Mycobacterial Activity” (Biomedicines, 2023).
Converted amounts (≈) assume the structure as drawn.

Test system: M. tuberculosis H37Rv
Assay: MIC determination by microplate alamar blue assay (MABA)
Assay type: cell-based
Settings: Mycobacterium tuberculosis, Mtb H37Rv, MABA

| Structure (SMILES) | MIC (168 h) [µM] | MIC [µM] |
| --- | --- | --- |
| CN(Cc1cn(C2CCCCC2)nn1)c1nc(=O)c2cc(C(F)(F)F)cc([N+](=O)[O-])c2s1 [Compound 1, 2-{[(1-cyclohexyl-1H-1,2,3-triazol-4-yl)methyl](methyl)amino}-BTZ] | 0.032 (≈ 0.015 µg/mL) | 0.032 (≈ 0.015 µg/mL) |
| CN(Cc1cn(-c2ccncc2)nn1)c1nc(=O)c2cc(C(F)(F)F)cc([N+](=O)[O-])c2s1 [Compound 5] | – | 0.047 (≈ 0.0218 µg/mL) |
| CN(Cc1cn(-c2cccnc2)nn1)c1nc(=O)c2cc(C(F)(F)F)cc([N+](=O)[O-])c2s1 [Compound 6] | – | 0.17 (≈ 0.0788 µg/mL) |
| CN(Cc1cn(-c2ccc(-c3ccccc3)cc2)nn1)c1nc(=O)c2cc(C(F)(F)F)cc([N+](=O)[O-])c2s1 [Compound 7] | – | 0.44 (≈ 0.237 µg/mL) |
| CN(Cc1cn(-c2ccc3ccccc3c2)nn1)c1nc(=O)c2cc(C(F)(F)F)cc([N+](=O)[O-])c2s1 [Compound 8] | – | 0.057 (≈ 0.0292 µg/mL) |
| CN(Cc1cn(-c2cccc3ccccc23)nn1)c1nc(=O)c2cc(C(F)(F)F)cc([N+](=O)[O-])c2s1 [Compound 9] | – | 0.217 (≈ 0.111 µg/mL) |
| CN(Cc1cn(-c2ccc(F)cc2)nn1)c1nc(=O)c2cc(C(F)(F)F)cc([N+](=O)[O-])c2s1 [Compound 12] | 0.012 (≈ 0.00576 µg/mL) | 0.012 (≈ 0.00576 µg/mL) |
| CN(Cc1cn(-c2cccc(F)c2)nn1)c1nc(=O)c2cc(C(F)(F)F)cc([N+](=O)[O-])c2s1 [Compound 13] | 0.008 (≈ 0.00384 µg/mL) | 0.008 (≈ 0.00384 µg/mL) |
| CN(Cc1cn(-c2ccccc2F)nn1)c1nc(=O)c2cc(C(F)(F)F)cc([N+](=O)[O-])c2s1 [Compound 14] | 0.27 (≈ 0.13 µg/mL) | 0.27 (≈ 0.13 µg/mL) |
| CN(Cc1cn(-c2cccc(Cl)c2)nn1)c1nc(=O)c2cc(C(F)(F)F)cc([N+](=O)[O-])c2s1 [Compound 15] | 0.014 to 0.207 (≈ 0.00696 to 0.103 µg/mL) | 0.014 (≈ 0.00696 µg/mL) |
| CN(Cc1cn(-c2cccc(Br)c2)nn1)c1nc(=O)c2cc(C(F)(F)F)cc([N+](=O)[O-])c2s1 [Compound 16] | 0.014 to 0.207 (≈ 0.00758 to 0.112 µg/mL) | 0.055 (≈ 0.0298 µg/mL) |
| CN(Cc1cn(-c2cccc(I)c2)nn1)c1nc(=O)c2cc(C(F)(F)F)cc([N+](=O)[O-])c2s1 [Compound 17] | 0.014 to 0.207 (≈ 0.00824 to 0.122 µg/mL) | 0.133 (≈ 0.0782 µg/mL) |
| COc1cccc(-n2cc(CN(C)c3nc(=O)c4cc(C(F)(F)F)cc([N+](=O)[O-])c4s3)nn2)c1 [Compound 18] | 0.014 to 0.207 (≈ 0.00689 to 0.102 µg/mL) | 0.12 (≈ 0.0591 µg/mL) |
| Cc1cccc(-n2cc(CN(C)c3nc(=O)c4cc(C(F)(F)F)cc([N+](=O)[O-])c4s3)nn2)c1 [Compound 19, 2-{methyl[1-(m-tolyl)-1H-1,2,3-triazol-4-yl](methyl)amino}-BTZ] | 0.014 to 0.207 (≈ 0.00667 to 0.0986 µg/mL) | 0.061 (≈ 0.0291 µg/mL) |
| CN(Cc1cn(-c2cccc(C(F)(F)F)c2)nn1)c1nc(=O)c2cc(C(F)(F)F)cc([N+](=O)[O-])c2s1 [Compound 20] | 0.014 to 0.207 (≈ 0.00743 to 0.11 µg/mL) | 0.04 (≈ 0.0212 µg/mL) |
| CN(Cc1cn(-c2cccc(C#N)c2)nn1)c1nc(=O)c2cc(C(F)(F)F)cc([N+](=O)[O-])c2s1 [Compound 21, 3-{4-[(methyl(8-nitro-4-oxo-6-(trifluoromethyl)-4H-benzo[e][1,3]thiazin-2-yl)amino)methyl)-1H-1,2,3-triazol-1-yl)benzonitrile] | 0.014 to 0.207 (≈ 0.00682 to 0.101 µg/mL) | 0.207 (≈ 0.101 µg/mL) |
| CN(Cc1cn(-c2ccc(F)c(F)c2)nn1)c1nc(=O)c2cc(C(F)(F)F)cc([N+](=O)[O-])c2s1 [Compound 22] | < 0.023 | 0.014 (≈ 0.00698 µg/mL) |
| CN(Cc1cn(-c2cc(F)cc(F)c2)nn1)c1nc(=O)c2cc(C(F)(F)F)cc([N+](=O)[O-])c2s1 [Compound 23] | < 0.023 | 0.016 (≈ 0.00797 µg/mL) |
| CN(Cc1cn(-c2ccc(F)cc2F)nn1)c1nc(=O)c2cc(C(F)(F)F)cc([N+](=O)[O-])c2s1 [Compound 25] | – | 0.023 (≈ 0.0115 µg/mL) |
| CN(Cc1nnc(-c2cccc(F)c2)o1)c1nc(=O)c2cc(C(F)(F)F)cc([N+](=O)[O-])c2s1 [Compound 38] | – | 0.006 (≈ 0.00289 µg/mL) |
| CN(Cc1nnc(-c2ccc(F)cc2)o1)c1nc(=O)c2cc(C(F)(F)F)cc([N+](=O)[O-])c2s1 [Compound 39] | – | 0.006 (≈ 0.00289 µg/mL) |
| CN(Cc1nnc(-c2cccc(F)c2)s1)c1nc(=O)c2cc(C(F)(F)F)cc([N+](=O)[O-])c2s1 [Compound 41] | – | 0.024 (≈ 0.0119 µg/mL) |
| CN(Cc1nnc(-c2ccc(F)cc2)s1)c1nc(=O)c2cc(C(F)(F)F)cc([N+](=O)[O-])c2s1 [Compound 42] | – | 0.026 (≈ 0.0129 µg/mL) |
